According to patent US20060069132A1, “Azolecarboxamide herbicides” (priority 2004, published 2006):

Assays:
[1] = tested on: small flower umbrella sedge; test: Test B flooded paddy test; assay type: in vivo, Cyperus difformis; details: 1000 g ai/ha, visual rating, scale 0 to 100 (0 no effect, 100 complete control), 13 to 15 days
How it was run: (§1)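 After treating 2-leaf paddy plants or 2–18 cm postemergence plants (1 to 4 leaves) with formulated chemical, researchers kept them in a greenhouse for 13–15 days. Effects were judged visually versus controls: 0 indicates none, 100 total control.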

[2] = tested on: morningglory; test: Test B pre-/postemergence herbicide test; assay type: in vivo, Ipomoea coccinea; details: for Morningglory plant response rating: postemergence, visual rating, scale 0 (no effect) to 100 (complete control)
How it was run: (§2)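 Flooded paddy rice and barnyardgrass were treated at the 2-leaf stage; upland plantings received compound either on sown seed or on 1- to 4-leaf seedlings. All were kept 13–15 days in a greenhouse and scored visually, 0–100, relative to untreated plants.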

[3] = tested on: smallflower umbrella sedge; test: Test C flooded paddy test; assay type: in vivo, Cyperus difformis
[4] = tested on: barnyardgrass; test: Test B pre-/postemergence herbicide test; assay type: in vivo, Echinochloa crus-galli; details: for Barnyardgrass plant response rating: postemergence, visual rating, scale 0 (no effect) to 100 (complete control)
How it was run: as §2

[5] = tested on: barnyardgrass; test: Test B flooded paddy test; assay type: in vivo, Echinochloa crus-galli; details: 1000 g ai/ha, visual rating, scale 0 to 100 (0 no effect, 100 complete control), 13 to 15 days
How it was run: as §1

[6] = tested on: velvetleaf; test: Test B pre-/postemergence herbicide test; assay type: in vivo, Abutilon theophrasti; details: for Velvetleaf plant response rating: postemergence, visual rating, scale 0 (no effect) to 100 (complete control)
How it was run: (§3)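 Greenhouse pot assay with simultaneous preemergence (treated seed) and postemergence (2–18 cm seedlings) applications of surfactant-containing, non-phytotoxic solvent formulations. Response scored visually 13–15 days later on a 0–100 scale, 100 meaning complete control.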

[7] = tested on: blackgrass; test: Test B postemergence herbicide test; assay type: in vivo, Alopecurus myosuroides; details: postemergence, visual rating, scale 0 (no effect) to 100 (complete control)
How it was run: as §1

[8] = tested on: large crabgrass; test: Test B pre-/postemergence herbicide test; assay type: in vivo, Digitaria sanguinalis; details: for Crabgrass, Large plant response rating: postemergence, visual rating, scale 0 (no effect) to 100 (complete control)
How it was run: as §3

[9] = tested on: ducksalad; test: Test C flooded paddy test; assay type: in vivo, Heteranthera limosa
[10] = tested on: wild oat; test: Test B postemergence herbicide test; assay type: in vivo, Avena fatua; details: postemergence, visual rating, scale 0 (no effect) to 100 (complete control)
How it was run: as §1

[11] = tested on: wheat; test: Test B postemergence herbicide test; assay type: in vivo, Triticum aestivum; parameters: key to Wheat plant response rating: 0 = no effect, 100 = complete control; details: postemergence, visual rating, scale 0 (no effect) to 100 (complete control)
How it was run: as §1

[12] = tested on: pigweed; test: Test B pre-/postemergence herbicide test; assay type: in vivo, Amaranthus retroflexus; details: for Pigweed plant response rating: postemergence, visual rating, scale 0 (no effect) to 100 (complete control)
How it was run: as §3

[13] = tested on: giant foxtail; test: Test B pre-/postemergence herbicide test; assay type: in vivo, Setaria faberi; details: for Foxtail, Giant plant response rating: postemergence, visual rating, scale 0 (no effect) to 100 (complete control)
How it was run: as §3

[14] = tested on: rice; test: Test B pre-/postemergence herbicide test; assay type: in vivo, Oryza sativa; details: preemergence
How it was run: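 Species tested were Echinochloa crus-galli, Ipomoea coccinea, Xanthium strumarium and Oryza sativa, treated both before emergence and at the 1- to 4-leaf stage; rice and barnyardgrass were also tested under flooding at 2 leaves. Greenhouse incubation lasted 13–15 days before visual 0–100 scoring.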

[15] = tested on: rice; test: Test B flooded paddy test; assay type: in vivo, Oryza sativa; details: 1000 g ai/ha, visual rating, scale 0 to 100 (0 no effect, 100 complete control), 13 to 15 days
How it was run: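 Greenhouse test; postemergence application to plants at 1–4 leaves (2–18 cm); paddy species at 2 leaves; evaluated visually vs controls at 13–15 days; scale 0–100 (100 = complete control).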

[16] = tested on: corn; test: Test B pre-/postemergence herbicide test; assay type: in vivo, Zea mays; details: for Corn plant response rating: postemergence, visual rating, scale 0 (no effect) to 100 (complete control)
How it was run: as §3

[17] = tested on: cocklebur; test: Test B pre-/postemergence herbicide test; assay type: in vivo, Xanthium strumarium; details: for Cocklebur plant response rating: postemergence, visual rating, scale 0 (no effect) to 100 (complete control)
How it was run: as §2

[18] = tested on: lambsquarters; test: Test B pre-/postemergence herbicide test; assay type: in vivo, Chenopodium album; details: for Lambsquarters plant response rating: postemergence, visual rating, scale 0 (no effect) to 100 (complete control)
How it was run: as §3

[19] = tested on: rice; test: Test C flooded paddy test; assay type: in vivo, Oryza sativa
How it was run: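 Postemergence sprays applied to plants 2 to 18 cm tall (1- to 4-leaf stage); paddy species grown to 2-leaf stage under flooding. After 12 to 14 days in greenhouse, visual rating versus untreated controls on 0–100 scale (0 no effect, 100 complete control).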

[20] = tested on: Surinam grass; test: Test B pre-/postemergence herbicide test; assay type: in vivo, Urochloa decumbens; details: for Surinam Grass plant response rating: postemergence, visual rating, scale 0 (no effect) to 100 (complete control)
How it was run: as §3

[21] = tested on: barnyardgrass; test: Test C flooded paddy test; assay type: in vivo, Echinochloa crus-galli
How it was run: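 Weeds and wheat were sprayed after emergence, at a height of 2 to 18 cm (1–4 leaves), and paddy barnyardgrass was flooded and treated at two leaves. Assessment took place 12–14 days later in the greenhouse on a 0-to-100 visual control scale. A dash means no result was obtained.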

[22] = tested on: ducksalad; test: Test B flooded paddy test; assay type: in vivo, Heteranthera limosa; details: 1000 g ai/ha, visual rating, scale 0 to 100 (0 no effect, 100 complete control), 13 to 15 days
How it was run: as §1

[23] = 125 g ai/ha, 0 = no effect, 100 = complete control, preemergence
[24] = 500 g ai/ha, visual rating 0-100, 0 no effect, 100 complete control, preemergence
[25] = 62 g ai/ha, scale 0 to 100 (0 no effect, 100 complete control)
[26] = 125 g ai/ha, scale 0 to 100 (0 no effect, 100 complete control)
[27] = 250 g ai/ha, scale of 0 to 100, 0 is no effect, 100 is complete control
[28] = 500 g ai/ha, visual rating after 12 to 14 days, scale 0 to 100 (0 no effect, 100 complete control)

What does the source list for CCNC(=O)c1cccc(NC(=O)c2cn(C(C)(C)C)nc2C)c1 [Compound 183]?
Sedge, Umbrella plant response rating [1]: 80; Morningglory plant response rating (0 to 100 scale) [2, 23]: 10; Plant response rating, Morningglory [2, 24]: 10; Morningglory plant response rating ([2]; 125 g ai/ha): 60; Morningglory plant response rating ([2]; 500 g ai/ha): 70; Sedge, Umbrella plant response rating [3, 25]: 0; Sedge, Umbrella plant response rating [3, 26]: 0; Sedge, Umbrella plant response rating [3, 27]: 10; Plant response rating, Sedge, Umbrella [3, 28]: 50; Barnyardgrass plant response rating (0 to 100 scale) [4, 23]: 20; Plant response rating, Barnyardgrass [4, 24]: 70; Barnyardgrass plant response rating ([4]; 125 g ai/ha): 0; Barnyardgrass plant response rating ([4]; 500 g ai/ha): 0; Barnyardgrass plant response rating [5]: 60; Velvetleaf plant response rating (0 to 100 scale) [6, 23]: 10; Plant response rating, Velvetleaf [6, 24]: 50; Velvetleaf plant response rating ([6]; 125 g ai/ha): 40; Velvetleaf plant response rating ([6]; 500 g ai/ha): 60; Blackgrass plant response rating ([7]; 125 g ai/ha): 0; Blackgrass plant response rating ([7]; 500 g ai/ha): 10; Crabgrass, Large plant response rating (0 to 100 scale) [8, 23]: 10; Plant response rating, Crabgrass, Large [8, 24]: 90; Crabgrass, Large plant response rating ([8]; 125 g ai/ha): 20; Crabgrass, Large plant response rating ([8]; 500 g ai/ha): 30; Ducksalad plant response rating [9, 25]: 0; Ducksalad plant response rating [9, 26]: 0; Ducksalad plant response rating [9, 27]: 10; Plant response rating, Ducksalad [9, 28]: 20; Oat, Wild plant response rating ([10]; 125 g ai/ha): 10; Oat, Wild plant response rating ([10]; 500 g ai/ha): 20; Wheat plant response rating ([11]; 125 g ai/ha): 0; Wheat plant response rating ([11]; 500 g ai/ha): 0; Pigweed plant response rating (0 to 100 scale) [12, 23]: 100; Plant response rating, Pigweed [12, 24]: 100; Pigweed plant response rating ([12]; 125 g ai/ha): 70; Pigweed plant response rating ([12]; 500 g ai/ha): 80; Foxtail, Giant plant response rating (0 to 100 scale) [13, 23]: 0; Plant response rating, Foxtail, Giant [13, 24]: 80; Foxtail, Giant plant response rating ([13]; 125 g ai/ha): 20; Foxtail, Giant plant response rating ([13]; 500 g ai/ha): 30; Rice plant response rating (0 to 100 scale) ([14]; 125 g ai/ha, 0 = no effect, 100 = complete control): 0; Plant response rating, Rice ([14]; 500 g ai/ha, visual rating 0-100, 0 no effect, 100 complete control): 80; Rice plant response rating [15]: 0; Corn plant response rating (0 to 100 scale) [16, 23]: 0; Plant response rating, Corn [16, 24]: 0; Corn plant response rating ([16]; 125 g ai/ha): 20; Corn plant response rating ([16]; 500 g ai/ha): 20; Cocklebur plant response rating (0 to 100 scale) [17, 23]: 0; Plant response rating, Cocklebur [17, 24]: 0; Cocklebur plant response rating ([17]; 125 g ai/ha): 50; Cocklebur plant response rating ([17]; 500 g ai/ha): 90; Lambsquarters plant response rating (0 to 100 scale) [18, 23]: 50; Plant response rating, Lambsquarters [18, 24]: 100; Lambsquarters plant response rating ([18]; 125 g ai/ha): 70; Lambsquarters plant response rating ([18]; 500 g ai/ha): 80; Rice plant response rating [19, 25]: 0; Rice plant response rating [19, 26]: 0; Rice plant response rating [19, 27]: 0; Plant response rating, Rice [19, 28]: 0; Surinam Grass plant response rating (0 to 100 scale) [20, 23]: 20; Plant response rating, Surinam Grass [20, 24]: 50; Surinam Grass plant response rating ([20]; 125 g ai/ha): 0; Surinam Grass plant response rating ([20]; 500 g ai/ha): 20; Barnyardgrass plant response rating [21, 25]: 0; Barnyardgrass plant response rating ([21]; 125 g ai/ha, scale of 0 to 100, 0 is no effect, 100 is complete control): 0; Barnyardgrass plant response rating [21, 27]: 0; Plant response rating, Barnyardgrass [21, 28]: 0; Ducksalad plant response rating [22]: 70
